Experiments:
CD4+ T cells = experiment: Immunological screening in vitro in CD4+ T cells (flow cytometry); type: cell-based, C57BL/6 mice; conditions: for significance of change in IFNγ/TNFα production relative to vehicle treated control: tested at 100 nM and 1 μM, P<0.05; for reduction in IFNγ production: 24 h, anti-CD3/CD28, PMA/ionomycin last 6 h
From the text: (§1) Cell culture. Spleens were excised from C57BL/6 mice. Spleens were crushed between the frosted ends of microscope slides and filtered to provide a cellular suspension. Red blood cells were lysed through hypotonic lysis. Remaining cells were washed and filtered. CD4+ T cells were enriched within the suspension using magnetic sorting based negative selection. Cells were collected and plated within 96 well plates coated with anti-CD3/CD28 and cultured in the presence of PX-02, PX-04, PX-07, PX-08 and PX-09 at 0, 0.1 or 1 micromolar for 24 h. During the last 6 h of culture, cells were stimulated with phorbol 12-myristate-13-acetate (PMA) and ionomycin.
(§2) Immunological analysis. Cells were collected from 96 well plates and stained with a cocktail of antibodies for immunophenotyping by flow cytometry. Culture supernatant was collected and assayed for cytokine concentrations by cytometric bead array. Data was captured on a BD FACS Celesta and analyzed using FACSDiva.

NZB/W F1 mice = experiment: NZB/W F1 model of SLE; type: in vivo; conditions: 10 mg/kg daily oral
Protocol: NZB/W F1 model. Twenty-four-week-old, female NZB/W F1 mice were randomized into vehicle or PX-04 treated arms based on baseline urine protein levels (n ═10). PX-04 was administered daily at 10 mg/kg for 12 weeks. Mice will be weighed on a weekly basis to update dosage formulation. Dosage will be calculated based off mean body weights.
Immunological analysis. Urine was collected for assay for protein content to test for kidney function at baseline, 6, and 12 weeks of treatment. Spleens were excised, crushed and filtered to provide a cellular suspension. Red blood cells were lysed. Cells were labeled with mixtures of extracellular (CD45, CD3, CD4) and intracellular (IL10) antibodies in a sequential live staining in 96-well plates in preparation for flow cytometry. Data was captured on a BD FACS Celesta and analyzed using FACSDiva.

[1] = tested on: rats with collagen-induced arthritis; experiment: Collagen-induced arthritis in rats; type: in vivo, Lewis rats
Protocol: (§3) Models. Six-week-old C57Bl/6 mice were immunized with 200 μg of chicken collagen emulsified in complete Freund's adjuvant by intradermal injections at the base of the tail (n=8). Mice were treated with 5 mg/kg of PX-07 or vehicle daily for four weeks. Five- to six-week-old Lewis rats (n=8) were immunized with 200 μg of bovine collagen emulsified in incomplete Freund's adjuvant by intradermal injection into the base of the tail. A second boosting immunization was given after one week. PX-04 was administered daily at 2 or 20 mg/kg for 3 weeks.
(§4) Immunological analysis. Spleens were excised from mice and inguinal lymph nodes were excised from rats. Tissues were crushed and filtered to provide a cellular suspension. Red blood cells were lysed. Cells were labeled with mixtures of extracellular (CD45, CD3, CD4, CD8, B220, CD19, CD138, CD21, CD24, CD1d, CD11b, CD86, CD80) and intracellular (BCL6, IL21, IL10, TNF) antibodies in a sequential live staining in 96-well plates in preparation for flow cytometry. Data was captured on a BD FACS Celesta and analyzed using FACSDiva.

[2] = tested on: CD4+ T cells deficient in PLXDC2; experiment: Specificity test in PLXDC2 deficient CD4+ T cells; type: cell-based; conditions: 100 nM or 1 μM; for IFNγ in the absence of PLXDC2: FIG. 4A; for TNFα in the absence of PLXDC2: FIG. 4B
Protocol: FIGS. 4A and 4B. Immunological validation of PX-04 and PX-07 specificity in CD4+ T cells. Percentages of IFNγ+(FIG. 4A) and TNFα+ (FIG. 4B) CD4+ T cells deficient in PLXDC2 were measured by flow cytometry after in vitro treatment of cells with PX compounds at concentrations of 0.1 and 1 micromolar. Statistical significance (P<0.05) is marked by asterisks.
as §1, §2
To determine the specificity of response to the PLXDC2 receptor, PX-04 and PX-07 were tested further in PLXDC2 deficient cells.

[3] = tested on: bone marrow-derived macrophages (BMDMs); experiment: Immunological screening in vitro in LPS-challenged bone marrow-derived macrophages (qRT-PCR, Luminex); type: cell-based, C57BL/6 mice; conditions: 0.1 and 1 micromolar, dose dependent; for IFNγ in the supernatant / IL-6 in the supernatant / TNF in the supernatant / concentration of IL-10 in the supernatant: Luminex, LPS 6 h; for IL-10 expression by RNA / expression of TNF by RNA: qRT-PCR, LPS 2 h
Protocol: Cell culture. Bone marrow was flushed from the femur and tibia of C57BL/6 mice. Bone marrow was then resuspended and filtered to provide a cellular suspension. Red blood cells were lysed through hypotonic lysis. Remaining cells were washed and filtered. Isolated cells were incubated in the presence of M-CSF for 7 days to differentiate cells into macrophages. Cells were harvested, plated within 24 well plates and cultured in the presence of PX-04 or PX-07 at 0, 0.1 or 1 micromolar for 12 h. During the last 2-6 h of culture, cells were stimulated with lipopolysaccharide. After stimulation for 2 h, cells were collected for the isolation of RNA. Gene expression was quantified by qRT-PCR. After stimulation for 6 h, supernatant was collected for detection of cytokines by Luminex.

mice challenged with DSS = experiment: DSS model of colitis (acute IBD model); type: in vivo
Protocol: DSS model. Mice were given DSS in drinking water for seven days to induce disruption of the epithelial layer. At project initiation, mice were 8 weeks of age and began dosing 24 hours after being placed on DSS. Mice were weighed and scored daily for symptoms of disease (diarrhea, rectal bleeding, rectal inflammation, overall behavior). PX-04 was prepared within a 0.5% methylcellulose (12-15 cP) solution. Dosage used was 20 mg/kg delivered once daily. Dosage was calculated based off mean body weights for each gender. Oral dosage was delivered by orogastric gavage of dosage in 0.2 mL volume. Flow Cytometry. Colons were collected into RPMI/FBS buffer containing collagenase (300 U/mL) and DNase (50 U/mL) for digestion. Tissues were digested for 60 minutes under stirring at 37° C. Resultant cellular suspensions were filtered through 100 μm strainers, centrifuged (300×g, 8 min), and washed in fresh RPMI. Following filtration of the resulting single cell suspensions, immune cells were purified by Percoll gradient of cell-containing 40% Percoll overlayed onto 70% Percoll solution. After centrifugation, interphase was collected and washed to obtain enriched colonic lamina propria cell fractions. Cells were labeled with mixtures of extracellular (CD45, CD3, CD4, CD8, CD19, NK1.1, CD25, F4/80, CD11b, Gr1, CX3CR1, CD64) and intracellular (Tbet, RORγT, FOXP3, IFNγ, IL17, IL10) antibodies in a sequential live staining in 96-well plates. Data was acquired using a FACS Celesta flow cytometer with FACSDiva software.

[4] = tested on: DBA/2 mice injected with STZ; experiment: STZ model of diabetic nephropathy; type: in vivo; conditions: daily oral gavage; for albumin/creatinine ratio in urine: 12 weeks of treatment
Protocol: STZ models. Streptozotocin (STZ) can be used to induce diabetes in both rats and mice. Mice were used for the assessment of nephropathy. DBA/2 mice were injected with 40 mg/kg STZ by intraperitoneal injection for 5 consecutive days. Mice were randomized to vehicle- or PX-04-treated arms after confirmation of diabetes on day 10 (n=12). PX-04 was administered daily for 12 weeks by oral gavage after a damage accrual stage. Separately, mice were randomized to vehicle- or PX-07-treated arms after confirmation of diabetes on day 10 (n=8). PX-07 was administered daily for 12 weeks by oral gavage after a damage accrual stage.
Kidney function. Kidney function was assessed by collection of urine and histological assessment of kidneys. Urine was assayed for albumin/creatinine ratio. Kidneys were scored using a composite scoring method (0-9) encompassing glomerular area, mesangial expansion, and renal fibrosis.

[5] = tested on: mice with collagen-induced arthritis; experiment: Collagen-induced arthritis in mice; type: in vivo, C57Bl/6 mice; conditions: 5 mg/kg daily oral, four weeks
Protocol: as §3, §4

[6] = 2 and 20 mg/kg daily oral, 3 weeks, relative to vehicle
[7] = 20 mg/kg oral, colonic lamina propria, day 7

SMILES | significance of change in IFNγ/TNFα production relative to vehicle treated control (CD4+ T cells) | IFNγ in the absence of PLXDC2 [2] | TNFα in the absence of PLXDC2 [2] | reduction in IFNγ production (CD4+ T cells; 100 nM) [%] | reduction in IFNγ production (CD4+ T cells; 1 μM) [%] | IFNγ in the supernatant [3] | IL-6 in the supernatant [3] | TNF in the supernatant [3] | concentration of IL-10 in the supernatant [3] | IL-10 expression by RNA [3] | expression of TNF by RNA [3] | albumin/creatinine ratio in urine [4] | other results
O=C(Nc1ccccc1)c1nc(-c2cccc(Oc3ccccc3)c2)c[nH]1 [PX-02, N-Phenyl-4-(m-phenoxyphenyl)-1H-imidazole-2-carboxamide] | only induced significant changes at 1 μM | – | – | – | – | – | – | – | – | – | – | – | –
O=C(Nc1ccc2c(c1)COC2)c1ncc(-c2cccc(Oc3ccccc3)c2)[nH]1 [PX-04, N-(1,3-Dihydro-5-isobenzofuranyl)-5-(m-phenoxyphenyl)-1H-imidazole-2-carboxamide] | significant decrease at both tested concentrations | no difference from vehicle | no difference from vehicle | ~55 | ~80 | greatly suppressed | greatly suppressed | greatly suppressed | higher | slight increase | inhibited | significantly reduced | proportion of splenic CD4+IL10+ T cells relative to vehicle-treated mice (NZB/W F1 mice; after 12 weeks): increased proportion; proteinuria relative to baseline on average (NZB/W F1 mice; at 12 weeks of treatment): slight improvement; proteinuria grade (NZB/W F1 mice; over 12 weeks): protected mice from the worsening; histological severity of disease in hind ankles (joint space, cartilage erosion, leukocytic infiltration, angiogenesis) ([1]; 2 mg/kg oral, relative to vehicle): reduced severity of disease; gene expression of CXCL1 within the synovium [1, 6]: reduced; gene expression of IL-1β within the synovium [1, 6]: reduced; gene expression of IL-6 within the synovium [1, 6]: reduced; ratio of TNF+ to IL10+ cells within CD4+ T cell fraction, inguinal lymph node ([1]; daily oral gavage, 3 weeks): decreased; ratio of TNF+ to IL10+ cells within myeloid cell fraction, inguinal lymph node ([1]; daily oral gavage, 3 weeks): decreased; cumulative disease activity (mice challenged with DSS; 20 mg/kg once daily oral gavage, 7 days of DSS): decreased; Th17 cells in the colon (mice challenged with DSS; [7]): greatly decreased; proportion of CD4+ T cells with IFNγ production (mice challenged with DSS; [7]): lower proportion; proportion of NK cells with IFNγ production (mice challenged with DSS; [7]): lower proportion; proportion of TNF producing dendritic cells (mice challenged with DSS; [7]): decreased; regulatory CD4+ T cells in the colon (mice challenged with DSS; [7]): slight increase
Cn1cccc(NC(=O)c2ncc(-c3cccc(Oc4ccccc4)c3)[nH]2)c1=O [PX-07, N-(1-Methyl-2-oxo-1H-pyrid-3-yl)-5-(m-phenoxyphenyl)-1H-imidazole-2-carboxamide] | significant decrease at both tested concentrations | no difference from vehicle | no difference from vehicle | ~55 | ~80 | greatly suppressed | greatly suppressed | greatly suppressed | higher | slight increase | inhibited | significantly reduced | proportion of CD1d+T2-MZP B cells in the spleen [5]: increased; proportion of T follicular helper cells (CD4+IL21+BCL6+) in the spleen [5]: decreased; histological score of kidney damage (composite 0-9) ([4]; after 12 weeks of treatment): significantly reduced
O=C(Nc1ccc[nH]c1=O)c1ncc(-c2cccc(Oc3ccccc3)c2)[nH]1 [PX-08, N-(2-Oxo-1H-pyrid-3-yl)-5-(m-phenoxyphenyl)-1H-imidazole-2-carboxamide] | significant decrease at both tested concentrations | – | – | – | – | – | – | – | – | – | – | – | –
O=C(O)c1cccc(NC(=O)c2ncc(-c3cccc(Oc4ccccc4)c3)[nH]2)c1 [PX-09, m-[5-(m-Phenoxyphenyl)-1H-imidazol-2-ylcarbonylamino]benzoic acid] | significant decrease at both tested concentrations | – | – | – | – | – | – | – | – | – | – | – | –
